Values quoted from earlier work as cited in US20210181185A1, “DENDRITIC CELL RECRUITMENT FROM BLOOD TO BRAIN IN NEURODEGENERATIVE DISEASE” (priority 2017, published 2021).

Conditions: free DiO

CCCCCCCCCCCCCCCCCCN1/C(=C\C=C\c2oc3ccccc3[n+]2CCCCCCCCCCCCCCCCCC)Oc2ccccc21.[O-][Cl+3]([O-])([O-])[O-] [DiO]
Clearance of free dye from blood: rapidly cleared from blood
